Assay results published in patent publication US20260199255A1, “LIPID COMPOUNDS AND METHODS OF MAKING AND USE THEREOF” (Ohio State Innovation Foundation, priority 2022, published 2026).

Experiments:
Format in all cases: cell-based
[1] = test system: Hep3B cell line; test: luciferase mRNA delivery in the Hep3B cell line (in vitro LNP screening); conditions: LNPs of bile acid derived lipid, DOPE, cholesterol and DMG-PEG; mRNA-encoding firefly luciferase; Hep3B cell line (FIG. 2)
Procedure: (§1) Lipid nanoparticles (LNPs) with synthesized bile acid derived lipids, DOPE, cholesterol and DMG-PEG were prepared and screened in various cell lines using mRNA-encoding firefly luciferase (FIGS. 2-4).

[2] = test system: JAWS2 cell line; test: luciferase mRNA delivery in the JAWS2 cell line (in vitro LNP screening); conditions: LNPs of bile acid derived lipid, DOPE, cholesterol and DMG-PEG; mRNA-encoding firefly luciferase; JAWS2 cell line (FIG. 3)
Procedure: as §1

[3] = test system: C2C12 cell line; test: luciferase mRNA delivery in the C2C12 cell line (in vitro LNP screening); conditions: LNPs of bile acid derived lipid, DOPE, cholesterol and DMG-PEG; mRNA-encoding firefly luciferase; C2C12 cell line (FIG. 4)
Procedure: as §1

Compound | mRNA delivery efficiency [1] | mRNA delivery efficiency [2] | mRNA delivery efficiency [3]
CCCCCCCCCCCCN(CCCCCCCCCCCC)CCCCCCNC(=O)CC[C@@H](C)[C@H]1CC[C@H]2[C@@H]3CC[C@@H]4C[C@H](O)CC[C@]4(C)[C@H]3C[C@H](O)[C@]12C [BAL6] | more effective mRNA delivery efficiency than other LNPs | – | –
CCCCCCCCCCCCN(CCCCCCCCCCCC)CCN(CCCCCCCCCCCC)CCNC(=O)CC[C@@H](C)[C@H]1CC[C@H]2[C@@H]3CC[C@@H]4C[C@H](O)CC[C@]4(C)[C@H]3C[C@H](O)[C@]12C [BAL7] | – | high mRNA delivery efficiency | high mRNA delivery efficiency
CCCCCCCCCCCCN(CCCCCCCCCCCC)CCN(CCCCCCCCCCCC)CCNC(=O)CC[C@@H](C)[C@H]1CC[C@H]2[C@@H]3[C@H](O)C[C@@H]4C[C@H](O)CC[C@]4(C)[C@H]3CC[C@]12C [BAL11] | – | high mRNA delivery efficiency | high mRNA delivery efficiency
